Laboratory results taken from PubChem BioAssay AID1918948 (Molecular Pharmacology Branch, DTP, NCI, 2023).

Test system: K-562 leukemia growth, % test/control
Test: Anticancer human tumor K-562 cell line growth inhibition;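 on viability, T/C: 100% = DMSO vehicle wells and lower values mean fewer viable cells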
Details: spheroids with HUVEC and MSC; for IC50: curve of first compound; for viability, T/C: stronger effect = lower value
Outline: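 Complex spheroids of tumor cells with HUVEC and human MSCs, exposed to iadademstat combined with other agents. Each agent tested in half-log steps from near clinical Cmax (else 10 microM top), DMSO ≤0.25%.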

[1] = second compound 0.1 µM, first compound 0.000316 µM
[2] = second compound 0.1 µM, first compound 0.001 µM
[3] = second compound 0.1 µM, first compound 0.00316 µM
[4] = second compound 0.1 µM, first compound 0.01 µM
[5] = second compound 0.1 µM, first compound 0.0316 µM
[6] = second compound 0.1 µM, first compound 0.1 µM
[7] = second compound 0.316 µM, first compound 0.000316 µM
[8] = second compound 0.316 µM, first compound 0.001 µM
[9] = second compound 0.316 µM, first compound 0.00316 µM
[10] = second compound 0.316 µM, first compound 0.01 µM
[11] = second compound 0.316 µM, first compound 0.0316 µM
[12] = second compound 0.316 µM, first compound 0.1 µM
[13] = second compound 1 µM, first compound 0.000316 µM
[14] = second compound 1 µM, first compound 0.001 µM
[15] = second compound 1 µM, first compound 0.00316 µM
[16] = second compound 1 µM, first compound 0.01 µM
[17] = second compound 1 µM, first compound 0.0316 µM
[18] = second compound 1 µM, first compound 0.1 µM
[19] = second compound 3.16 µM, first compound 0.000316 µM
[20] = second compound 3.16 µM, first compound 0.001 µM
[21] = second compound 3.16 µM, first compound 0.00316 µM
[22] = second compound 3.16 µM, first compound 0.01 µM
[23] = second compound 3.16 µM, first compound 0.0316 µM
[24] = second compound 3.16 µM, first compound 0.1 µM
[25] = second compound 10 µM, first compound 0.000316 µM
[26] = second compound 10 µM, first compound 0.001 µM
[27] = second compound 10 µM, first compound 0.00316 µM
[28] = second compound 10 µM, first compound 0.01 µM
[29] = second compound 10 µM, first compound 0.0316 µM
[30] = second compound 10 µM, first compound 0.1 µM

SMILES | IC50 (second compound 0.1 µM) [nM] | IC50 (second compound 0.316 µM) [nM] | IC50 (second compound 1 µM) [nM] | IC50 (second compound 3.16 µM) [nM] | IC50 (second compound 10 µM) [nM] | viability, T/C [1] [%] | viability, T/C [2] [%] | viability, T/C [3] [%] | viability, T/C [4] [%] | viability, T/C [5] [%] | viability, T/C [6] [%] | viability, T/C [7] [%] | viability, T/C [8] [%] | viability, T/C [9] [%] | viability, T/C [10] [%] | viability, T/C [11] [%] | viability, T/C [12] [%] | viability, T/C [13] [%] | viability, T/C [14] [%] | viability, T/C [15] [%] | other results
CC(C)CC(NC(=O)C(Cc1ccccc1)NC(=O)c1cnccn1)B(O)O (stereo not given) + NC1CCC(NC2CC2c2ccccc2)CC1 | 1.9 | 1.94 | 1.95 | 1.77 | 0.977 | 99 | 101 | 10.2 | 2.14 | 1.84 | 0.67 | 99.3 | 102 | 12.7 | 2.31 | 0.86 | 2.09 | 104 | 101 | 13.5 | viability, T/C [16]: 1.19%; viability, T/C [17]: 1.68%; viability, T/C [18]: 1.1%; viability, T/C [19]: 105%; viability, T/C [20]: 87.8%; viability, T/C [21]: 11.7%; viability, T/C [22]: 1.18%; viability, T/C [23]: 2.66%; viability, T/C [24]: 0.99%; viability, T/C [25]: 97.1%; viability, T/C [26]: 49%; viability, T/C [27]: 9.37%; viability, T/C [28]: 1.01%; viability, T/C [29]: 0.67%; viability, T/C [30]: 1.77%
CC(C)CC(NC(=O)CNC(=O)c1cc(Cl)ccc1Cl)B1OC(=O)CC(CC(=O)O)(C(=O)O)O1 (stereo not given) + NC1CCC(NC2CC2c2ccccc2)CC1 | 12.9 | 12.8 | 13.1 | 13.4 | 11.7 | 102 | 96.6 | 100 | 59.5 | 15.6 | 6.56 | 99.6 | 102 | 102 | 58.7 | 16.7 | 6.02 | 104 | 102 | 102 | viability, T/C [16]: 61.5%; viability, T/C [17]: 12.8%; viability, T/C [18]: 6.77%; viability, T/C [19]: 103%; viability, T/C [20]: 98.1%; viability, T/C [21]: 103%; viability, T/C [22]: 60.6%; viability, T/C [23]: 16.9%; viability, T/C [24]: 5.71%; viability, T/C [25]: 97.9%; viability, T/C [26]: 99.5%; viability, T/C [27]: 96.5%; viability, T/C [28]: 54.2%; viability, T/C [29]: 16.9%; viability, T/C [30]: 4.71%
